Data on 24 compounds can be found in patent US7550456B2, “Substituted aryl cycloalkanoyl derivatives and methods of their use” (Wyeth, priority 2003, dated 2009).

Structures can show the parent of a compound that is named as a salt.

The target in the first experiment is T1, human hNET (Homo sapiens, UniProt P23975).
T1 construct: expressed in transfected cells; host or cells: MDCK-Net6 (MDCK cells, stably transfected)
T1 sequence (P23975 whole entry): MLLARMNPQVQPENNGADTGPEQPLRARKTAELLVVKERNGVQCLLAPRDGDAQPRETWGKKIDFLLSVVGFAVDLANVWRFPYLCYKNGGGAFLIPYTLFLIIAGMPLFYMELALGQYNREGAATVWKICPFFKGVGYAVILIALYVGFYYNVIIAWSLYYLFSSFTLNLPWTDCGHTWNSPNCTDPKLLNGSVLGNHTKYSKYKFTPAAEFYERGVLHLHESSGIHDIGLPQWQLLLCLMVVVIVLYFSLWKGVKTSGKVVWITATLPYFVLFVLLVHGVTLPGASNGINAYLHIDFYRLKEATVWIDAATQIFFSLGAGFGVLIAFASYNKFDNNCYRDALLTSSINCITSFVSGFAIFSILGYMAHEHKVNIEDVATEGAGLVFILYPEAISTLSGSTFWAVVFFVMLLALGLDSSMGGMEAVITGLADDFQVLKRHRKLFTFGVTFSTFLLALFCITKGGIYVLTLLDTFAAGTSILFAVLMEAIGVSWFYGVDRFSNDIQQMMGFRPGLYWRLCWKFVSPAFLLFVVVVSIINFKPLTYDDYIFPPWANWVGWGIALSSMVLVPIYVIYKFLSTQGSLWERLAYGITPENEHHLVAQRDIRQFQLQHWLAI
Kind of experiment: Norepinephrine (NE) uptake assay in MDCK-Net6 cells. It is filed as cell-based. The following applies: 1 μM test compound, [3H]NE uptake, dihydrochloride, 1 µM. In outline: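 Radiolabelled NE uptake was counted by scintillation after NaOH lysis, with 1 µM desipramine defining non-specific uptake. EC50 came from a logistic dose-response fit.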
As to `OC1(C(CN2CCNCC2)c2cccc(OC(F)(F)F)c2)CCCCC1` (stereo in doubt) [Example 244, 1-{(1R)-2-piperazin-1-yl-1-[3-(trifluoromethoxy)phenyl]ethyl}cyclohexanol dihydrochloride], the “% Inhibition @ 1 μM (hNET)” value is reported as 15.6%.

The same experiment, now with this note: 1 μM test compound, [3H]NE uptake, read-out: % Inhibition @ 1 μM (hNET).
`OC1(C(CN2CCNCC2)c2ccc(OCc3ccc4ccccc4c3)cc2)CCCCC1` (stereo not drawn) [Example 432, 1-{1-[4-(2-naphthylmethoxy)phenyl]-2-piperazin-1-ylethyl}cyclohexanol]: the inhibition at 1 µM worked out at 64%.
Same read-out and setting: the result for `OC1(C(CN2CCNCC2)c2ccc(-c3cccc(F)c3)cc2)CCCCC1` (stereo not drawn) [Example 166, 1-[1-(3′-fluoro-1,1′-biphenyl-4-yl)-2-piperazin-1-ylethyl]cyclohexanol dihydrochloride] reads 48%.
On to `CC[C@@H]1CN(C[C@H](c2cccc(OC(F)(F)F)c2)C2(O)CCCCC2)CCN1C` [Example 352, 1-{(1S)-2-[(3R)-3-ethyl-4-methylpiperazin-1-yl]-1-[3-(trifluoromethoxy)phenyl]ethyl}cyclohexanol dihydrochloride], for which the inhibition at 1 µM worked out at 68%.
In the case of `OC1(C(CN2CCNCC2)c2ccc(-c3ccccc3)cc2)CCCCC1` (stereo not drawn) [Example 157, 1-[1-(1,1′-biphenyl-4-yl)-2-piperazin-1-ylethyl]cyclohexanol dihydrochloride], the inhibition at 1 µM was 54%.
As to `CC#Cc1cccc(C(CN2CCNCC2)C2(O)CCCCC2)c1` (stereo not drawn) [Example 300, 1-[2-piperazin-1-yl-1-(3-prop-1-ynylphenyl)ethyl]cyclohexanol dihydrochloride], the inhibition at 1 µM worked out at 38%.
On the same count and under the same terms, the result for `COc1ccc(C(CN2CCNCC2)C2(O)CCCCC2)cc1-c1ccc(C(F)(F)F)cc1` (stereo not drawn) [Example 253, 1-{1-[6-methoxy-4′-(trifluoromethyl)-1,1′-biphenyl-3-yl]-2-piperazin-1-ylethyl}cyclohexanol dihydrochloride] reads 19%; that for `OC1([C@H](CN2CCNCC2)c2cccc(Oc3ccccc3)c2)CCCCC1` (single isomer, unassigned) [Example 357, dihydrochloride], 87%; that for `CN1CCN(CC(c2ccc(-c3ccccc3)cc2)C2(O)CCCCC2)CC1` (stereo not drawn) [Example 158, 1-[1-(1,1′-biphenyl-4-yl)-2-(4-methylpiperazin-1-ylethyl]cyclohexanoldihydrochloride], 57%.
As to `COc1cc(C(CN2CCNCC2)C2(O)CCCCC2)ccc1OCc1ccc(C(F)(F)F)cc1` (stereo not drawn) [Example 448, 1-[1-(3-methoxy-4-{[4-(trifluoromethyl)benzyl]oxy}phenyl)-2-piperazin-1-ylethyl]cyclohexanol dihydrochloride], the inhibition at 1 µM worked out at 78%.
Still for that read-out and setting: the value for `CN1CCN(CC(c2ccc(CCc3ccccc3)cc2)C2(O)CCCCC2)CC1` (stereo not drawn) [Example 410, 1-{2-(4-methylpiperazin-1-yl)-1-[4-(2-phenylethyl)phenyl]ethyl}cyclohexanol dihydrochloride] was 51%; that for `COc1cc(C(CN2CCN(C)CC2)C2(O)CCCCC2)ccc1OCc1ccc(Br)cc1F` (stereo not drawn) [Example 447, 1-[1-{4-[(4-bromo-2-fluorobenzyl)oxy]-3-methoxyphenyl}-2-(4-methylpiperazin-1-yl)ethyl]cyclohexanol] was 97%.
On the same count and under the same terms, the result for `CC#Cc1ccc(C(CN2CCNCC2)C2(O)CCCCC2)cc1` (stereo not drawn) [Example 164, 1-[2-piperazin-1-yl-1-(4-prop-1-ynylphenyl)ethyl]cyclohexanol dihydrochloride] reads 56%; that for `OC1(C(CN2CCCN(Cc3ccccc3)CC2)c2ccc(OC(F)(F)F)cc2)CCCCC1` (stereo not drawn) [Example 302, 1-{2-(4-benzyl-1,4-diazepan-1-yl)-1-[4(trifluoromethoxy)phenyl]ethyl}cyclohexanol dihydrochloride], 50%; that for `OC1(C(CN2CCNCC2)c2ccc(OCc3ccc(Br)cc3F)cc2)CCCCC1` (stereo not drawn) [Example 434, 1-(1-{4-[(4-bromo-2-fluorobenzyl)oxy]phenyl}-2-piperazin-1-ylethyl)cyclohexanol], 34%.
On the same count and under the same terms, the result for `OC1(C(CN2CCNCC2)c2ccc(-c3ccccc3Cl)cc2)CCCCC1` (stereo not drawn) [Example 165, 1-[1-(2′-chloro-1,1′-biphenyl-4-yl)-2-piperazin-1-ylethyl]cyclohexanol dihydrochloride] reads 13%.
Consider `CCOc1ccc(C(CN2CCN(C)CC2)C2(O)CCCCC2)cc1OC(F)(F)F` (stereo not drawn) [Example 405, 1-[1-[4-ethoxy-3-(trifluoromethoxy)phenyl]-2-(4-methylpiperazin-1-yl)ethyl]cyclohexanol dihydrochloride], for which the inhibition at 1 µM came out at 27%.
On to `N#Cc1cccc(C(CN2CCNCC2)C2(O)CCCCC2)c1` (stereo not drawn) [Example 160, 1-[1-(3-cyanophenyl)-2-piperazin-1-ylethyl]cyclohexanol dihydrochloride], for which the inhibition at 1 µM came to 50%.
On the same count and under the same terms, the value for `OC1(C(CN2CCNCC2)c2cc(Br)c(OCc3ccccc3)c(Br)c2)CCCCC1` (stereo not drawn) [Example 392, 1-{1-[4-(benzyloxy)-3,5-dibromophenyl]-2-piperazin-1-ylethyl}cyclohexanol dihydrochloride] was 68%; that for `CN1CCN(CC(c2ccc(OCCc3ccc(F)cc3)cc2)C2(O)CCCCC2)CC1` (stereo not drawn) [Example 463, 1-[1-{4-[2-(4-fluorophenyl)ethoxy]phenyl}-2-(4-methylpiperazin-1-yl)ethyl]cyclohexanol dihydrochloride] was 69%.
On the same count and under the same terms, the value for `OC1(C(CN2CCNCC2)c2cccc(-c3ccc(F)c(F)c3)c2)CCCCC1` (stereo not drawn) [Example 147, 1-[1-(3′,4′-difluoro-1,1′-biphenyl-3-yl)-2-piperazin-1-ylethyl]cyclohexanol dihydrochloride] was 13%; that for `CN1CCN(CC(c2ccc(OCCc3ccccc3)cc2)C2(O)CCCCC2)CC1` (stereo not drawn) [Example 460, 1-{2-(4-methylpiperazin-1-yl)-1-[4-(2-phenylethoxy)phenyl]ethyl}cyclohexanol dihydrochloride] was 82%.

Still in this experiment, the particulars now being: 10 μM test compound (stated in the cell), [3H]NE uptake.
Compound `CN1CCN(CC(c2ccc(Oc3ccccc3)cc2)C2(O)CCCCC2)CC1` (stereo not drawn) [Example 308, 1-[2-(4-methylpiperazin-1-yl)-1-(4-phenoxyphenyl)ethy]cyclohexanol dihydrochloride] gave an inhibition at 10 µM of 35.9%.

Staying with this experiment, now noted: MDCK-Net6, read-out: % Inhibition @ 1 μM (hNET), 1 μM test compound, [3H]NE uptake.
As for `CN1CCN(CC(c2ccc(OC(F)(F)F)cc2)C2(O)CCCCC2)CC1` (stereo not drawn) [Example 283, 1-{2-(4-methylpiperazin-1-yl)-1-[4-(trifluoromethoxy)phenyl]ethyl}cyclohexanol dihydrochloride], the inhibition at 1 µM was 70.7%.
